# Measured values: patent publication US20180042931A1 (Bayer Pharma Aktiengesellschaft, priority 2015, published 2018)
# Assays:
# [1] = tested on: constitutive active colorectal cancer cell (CRC) Wnt pathway; assay: Cellular reporter assay, HCT116 cells stably transfected with Super TopFlash vector (HCT116-TOP), luciferase readout; format: cell-based; conditions: Homo sapiens, HCT-116, 36 hours incubation, luciferase expression, average or median values
# Experimental: In order to discover and characterize small molecules which inhibit the constitutive active colorectal cancer cell (CRC) Wnt pathway, a cellular reporter assay was employed. The corresponding assay cell was generated by transfection of the colorectal cancer cell line HCT116 (ATCC, #CCL-247) with the Super TopFlash vector (Morin, Science 275, 1997, 1787-1790; Molenaar et al., Cell 86 (3), 1996, 391-399). The HCT116 cell line is cultivated at 37° C. and 5% CO2 in DMEM/F-12 (Life Technologies, #11320-074), supplemented with 2 mM glutamine, 20 mM HEPES, 1.4 mM pyruvate, 0.15% Na-bicarbonate and 10% foetal bovine serum (GIBCO, #10270), this cancer cell line is pathophysiological relevant since it carries a deletion of position S45 in the β-catenin gene, leading to constitutive active Wnt signaling. Stable transfectants were generated by cotransfection with pcDNA3 and selection of stable transfected cells with 1 mg/mL G418.
# (§1) In preparation of the assay, the two cell lines were plated 24 hours before at 10000 cells per well of a 384 micro titre plate (MTP) in 30 μL growth medium. Selective inhibitory activity for small molecules on the mutated Wnt pathway was determined after parallel incubation of both (TOP and FOP) HCT116 reporter cell lines with a compound dilution series from 50 μM to 15 nM in steps of 3.16-fold dilutions in CAFTY buffer (130 mM NaCl, 5 mM KCl, 20 mM HEPES, 1 mM MgCl2, 5 mM NaHCO3, pH 7.4) containing 2 mM Ca^2+ and 0.01% BSA. The compounds were thereby serially prediluted in 100% DMSO and thereafter in addition 50 fold into the CAFTY compound dilution buffer (described above). From this dilution 10 μL were added to the cells in 30 μL growth medium and incubated for 36 hours at 37° C. and 5% CO2. Thereafter luciferase assay buffer (1:1 mixture of luciferase substrate buffer (20 mM Tricine, 2.67 mM MgSO4, 0.1 mM EDTA, 4 mM DTT, 270 μM Coenzyme A, 470 μM Luciferin, 530 μM ATP, ph adjusted to pH 7.8 with a sufficient volume of 5M NaOH) and Triton buffer (30 mL Triton X-100, 115 mL glycerol, 308 mg Dithiothreitol, 4.45 g Na2HPO4.2H2O, 3.03 g TRIS HCl, ad 1I H2O, pH 7.8) was added as equal volume to the compound solution on the cells to determine luciferase expression as a measure of Wnt signaling activity in a luminometer.
# [2] = tested on: FOP control vector (randomized, non-functional sequence instead of functional TCF elements) in HCT116 cells; assay: Control reporter assay, HCT116 cells stably transfected with FOP control vector (HCT116-FOP), luciferase readout; format: cell-based; conditions: Homo sapiens, HCT-116, 36 hours incubation, luciferase expression, dilution series up to 50 μM
# Experimental: In a parallel approach, HCT116 cells were cotransfected with the FOP control vector and pcDNA3. The FOP vector is identical to the TOP construct, but it contains instead of functional TCF elements a randomized, non-functional sequence. For this transfection a stable transfected cell line was generated as well.
# as §1
SMILES,IC50 [1] [µM],IC50 [2] [µM]
"O=C(Nc1ccc(-c2cccnc2F)cc1)c1ccc(F)c(NC(=O)C2(N3CCOCC3)CC2)c1 [Example 26, 4-fluoro-N-[4-(2-fluoropyridin-3-yl)phenyl]-3-({[1-(morpholin-4-yl)cyclopropyl]carbonyl}-amino)benzamide]",0.014,≥ 50
"O=C(CN1CCOCC1)Nc1cc(C(=O)Nc2ccc(-c3cccnc3)cc2)ccc1OC(F)F [Example 27, 4-(difluoromethoxy)-3-[(morpholin-4-ylacetyl)amino]-N-[4-(pyridin-3-yl)phenyl]benzamide]",0.037,≥ 50
"Nc1ncc(-c2ccc(NC(=O)c3ccc(OC(F)F)c(NC(=O)CN4CCOCC4)c3)cc2)cn1 [Example 28, N-[4-(2-aminopyrimidin-5-yl)phenyl]-4-(difluoromethoxy)-3-[(morpholin-4-ylacetyl)amino]benzamide]",0.226,39
"Nc1ccc(-c2ccc(NC(=O)c3ccc(OC(F)F)c(NC(=O)CN4CCOCC4)c3)cc2)cn1 [Example 29, N-[4-(6-aminopyridin-3-yl)phenyl]-4-(difluoromethoxy)-3-[(morpholin-4-ylacetyl)amino]benzamide]",0.0488,≥ 50
"CN1CCN(CC(=O)Nc2cc(C(=O)Nc3ccc(-c4cccnc4)cc3)ccc2OC(F)(F)F)CC1 [Example 30, 3-{[(4-methylpiperazin-1-yl)acetyl]amino}-N-[4-(pyridin-3-yl)phenyl]-4-(trifluoromethoxy)benzamide]",0.0313,38.5
"CN1CCN(CC(=O)Nc2cc(C(=O)Nc3ccc(-c4cccnc4F)cc3)ccc2OC(F)(F)F)CC1 [Example 31, N-[4-(2-fluoropyridin-3-yl)phenyl]-3-{[(4-methylpiperazin-1-yl)acetyl]amino}-4-(trifluoromethoxy)benzamide]",0.0318,38.5
"CN1CCN(CC(=O)Nc2cc(C(=O)Nc3ccc(-c4cncnc4)cc3)ccc2OC(F)(F)F)CC1 [Example 32, 3-{[(4-methylpiperazin-1-yl)acetyl]amino}-N-[4-(pyrimidin-5-yl)phenyl]-4-(trifluoromethoxy)benzamide]",0.0475,40
CN1CCN(CC(=O)Nc2cc(C(=O)Nc3ccc(-c4cnc(N)nc4)cc3)ccc2OC(F)(F)F)CC1 [Example 33],0.0555,≥ 50
"CN1CCN(CC(=O)Nc2cc(C(=O)Nc3ccc(-c4ccc(N)nc4)cc3)ccc2OC(F)(F)F)CC1 [Example 34, N-[4-(6-aminopyridin-3-yl)phenyl]-3-{[(4-methylpiperazin-1-yl)acetyl]amino}-4-(trifluoromethoxy)-benzamide]",0.0253,28

# The next lines start with the values.
IC50 [1] [µM],IC50 [2] [µM],SMILES
0.023,≥ 50,"O=C(CN1CCOCC1)Nc1cc(C(=O)Nc2ccc(-c3cccnc3)cc2)ccc1OC1CC1 [Example 35, 4-(cyclopropyloxy)-3-[(morpholin-4-ylacetyl)amino]-N-[4-(pyridin-3-yl)phenyl]benzamide]"
15.6,≥ 50,"COc1ccc(NC(=O)c2ccc(-c3cnn(C)c3)cc2)cc1NC(=O)CN1CCOCC1 [Example 36, N-{4-methoxy-3-[(morpholin-4-ylacetyl)amino]phenyl}-4-(1-methyl-1H-pyrazol-4-yl)benzamide]"
23,≥ 50,"COc1ccc(NC(=O)c2ccc(-c3cnc(N)nc3)cc2)cc1NC(=O)CN1CCOCC1 [Example 37, 4-(2-aminopyrimidin-5-yl)-N-{4-methoxy-3-[(morpholin-4-ylacetyl)amino]phenyl} benzamide]"
10.9,≥ 50,"COc1ccc(NC(=O)c2ccc(-c3cccnc3)cc2)cc1NC(=O)CN1CCOCC1 [Example 38, N-{4-methoxy-3-[(morpholin-4-ylacetyl)amino]phenyl)-4-(pyridin-3-yl)benzamide]"
5.4,≥ 50,"O=C(CN1CCOCC1)Nc1cc(C(=O)Nc2ccc(-c3cccnc3F)cc2)ccc1OC(F)F [Example 39, 4-(difluoromethoxy)-N-[4-(2-fluoropyridin-3-yl)phenyl]-3-[(morpholin-4-ylacetyl)amino] benzamide]"
